These results are taken from US8492374B2, “Azaazulene compounds” (Industrial Technology Research Institute, priority 2009, dated 2013).

pIC50: −log10 of the molar value.

The subject of test [1] is MV4-11 (FLT3-ITD) cell line. As to the kind of experiment: In vitro cell activity assay (MTT cell viability, 72 hours). It is filed as cell-based. The note with it: Homo sapiens, 72 hours at 37° C., 10,000 cells per well, read-out: IC50 against MV4-11. A digest of the protocol: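 Compound serial dilutions applied to MV4-11 (FLT3-ITD) cells, 10,000 per well, for 72 hours at 37° C. Viability by MTT, formazan dissolved in DMSO, absorbance at 600 nm; IC50 by nonlinear regression as concentration halving absorbance versus untreated cells.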

The next test deals with T1, KDR kinase (Homo sapiens, UniProt P35968).
T1 construct: human VEGFR-2 (Val789-Val1356); GST (N); purchased Cell Signaling Technology HTScan VEGFR-2 Kinase Assay Kit; host or cells: baculovirus expression system
The test is described as follows: KDR kinase DELFIA assay (HTScan VEGFR-2 Kinase Assay Kit). It counts as biochemical. As to conditions: 20 uM ATP; for inhibition at 1 µM: 1 uM compound, read-out: Kinases inhibitory activities against KDR kinase, 1 uM; for inhibition at 0.1 µM: 0.1 uM compound, read-out: Kinases inhibitory activities against KDR kinase, 0.1 uM. The method, then:
(§1) Azaazulene Compounds of this invention were treated for their efficacy in inhibiting activities of FLT-3, c-KIT and KDR kinases by biochemical DELFIA (Dissociation Enhanced Lanthanide FIA) assays according to the procedure described below. The assays were conducted by, Division of Cell Engineering, Biomedical Engineering Research Laboratories, Industrial Technology Research Institute, Bldg. 53, 195, sec. 4, Chung Hsing Rd. Chutung, Hsinchu, Taiwan 310, R.O.C.
The KDR assay was conducted following the protocol described in Protocol for HTScan™ VEGFR-2 Kinase Assay Kit (Cell Signaling Technology™).

In another test the target is T2, c-KIT kinase (Homo sapiens, UniProt P10721).
T2 construct: human c-KIT (Thr544-Val976); GST (N); purchased Cell Signaling Technology HTScan c-KIT Kinase Assay Kit; host or cells: baculovirus expression system
The test is described as follows: c-KIT kinase DELFIA assay (HTScan c-KIT Kinase Assay Kit). It counts as biochemical. As to conditions: 20 uM ATP; for inhibition at 0.1 µM: 0.1 uM compound; for inhibition at 1 µM: 1 uM compound. The method, then: as §1
The c-KIT assay was conducted following the protocol described in Protocol for HTScan® c-KIT Kinase Assay Kit (Cell Signaling Technology®).

For another test, the target named is T3, FLT-3 kinase (Homo sapiens, UniProt P36888).
T3 construct: human FLT-3 (Arg571-Ser993); GST (N); purchased Cell Signaling Technology HTScan FLT-3 Kinase Assay Kit; host or cells: baculovirus expression system
T3 sequence (P36888 571-993): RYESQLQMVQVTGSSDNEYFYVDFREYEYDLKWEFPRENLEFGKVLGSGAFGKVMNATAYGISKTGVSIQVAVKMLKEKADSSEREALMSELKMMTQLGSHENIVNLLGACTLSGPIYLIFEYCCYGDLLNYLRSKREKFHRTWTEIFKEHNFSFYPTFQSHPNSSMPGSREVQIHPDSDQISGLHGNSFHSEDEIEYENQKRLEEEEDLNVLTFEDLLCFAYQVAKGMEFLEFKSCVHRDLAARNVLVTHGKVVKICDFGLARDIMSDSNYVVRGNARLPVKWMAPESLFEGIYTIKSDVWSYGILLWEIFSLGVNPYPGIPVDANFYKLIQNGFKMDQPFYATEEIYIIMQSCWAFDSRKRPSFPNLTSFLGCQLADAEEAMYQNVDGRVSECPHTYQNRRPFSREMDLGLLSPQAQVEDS
The test is described as follows: FLT-3 kinase DELFIA assay (HTScan FLT-3 Kinase Assay Kit). It counts as biochemical. As to conditions: 20 uM ATP; for inhibition at 0.1 µM: 0.1 uM compound; for inhibition at 1 µM: 1 uM compound.

T2 sequence (P10721 544-976): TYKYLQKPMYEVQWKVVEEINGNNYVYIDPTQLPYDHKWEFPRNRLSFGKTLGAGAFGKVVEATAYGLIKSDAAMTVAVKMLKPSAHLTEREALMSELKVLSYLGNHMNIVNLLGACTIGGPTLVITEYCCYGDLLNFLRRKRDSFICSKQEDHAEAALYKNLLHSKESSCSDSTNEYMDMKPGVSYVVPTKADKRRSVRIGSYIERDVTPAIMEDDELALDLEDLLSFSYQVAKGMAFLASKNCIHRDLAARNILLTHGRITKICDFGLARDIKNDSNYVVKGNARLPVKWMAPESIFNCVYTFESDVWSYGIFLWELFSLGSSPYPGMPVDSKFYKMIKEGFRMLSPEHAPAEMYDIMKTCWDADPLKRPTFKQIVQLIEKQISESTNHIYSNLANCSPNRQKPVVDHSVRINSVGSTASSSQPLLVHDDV
T1 sequence (P35968 789-1356): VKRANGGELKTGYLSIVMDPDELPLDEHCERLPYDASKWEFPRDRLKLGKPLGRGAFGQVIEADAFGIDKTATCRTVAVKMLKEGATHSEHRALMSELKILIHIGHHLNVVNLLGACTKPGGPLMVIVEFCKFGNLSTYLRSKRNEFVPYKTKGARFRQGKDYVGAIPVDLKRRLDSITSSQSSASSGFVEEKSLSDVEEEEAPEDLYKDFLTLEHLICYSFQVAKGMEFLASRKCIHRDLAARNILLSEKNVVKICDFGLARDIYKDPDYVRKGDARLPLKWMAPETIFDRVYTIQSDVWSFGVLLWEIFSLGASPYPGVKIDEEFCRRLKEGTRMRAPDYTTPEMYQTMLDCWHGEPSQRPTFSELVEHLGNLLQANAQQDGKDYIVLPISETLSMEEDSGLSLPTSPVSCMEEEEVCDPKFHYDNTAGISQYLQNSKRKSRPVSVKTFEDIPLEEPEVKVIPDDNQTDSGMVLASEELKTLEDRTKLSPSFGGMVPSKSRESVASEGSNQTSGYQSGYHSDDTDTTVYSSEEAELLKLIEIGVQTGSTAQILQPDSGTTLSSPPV

As to `CCN(CC)CCn1c2cccccc-2c(-c2nc3ccccc3[nH]2)c1=O` [Compound B1], in test [1], the pIC50 was 5.30 to 6.00. Besides, the inhibition at 1 µM is 3.7% at KDR kinase, 41.1% at c-KIT kinase and 10.4% against FLT-3 kinase. The inhibition at 0.1 µM against c-KIT kinase worked out at 31.2%; against FLT-3 kinase it was 8.4%.
`O=c1[nH]c2cccccc-2c1-c1nc2cc(F)ccc2[nH]1` [Compound B2]: the negative logarithm of the IC50 (pIC50) in test [1] is 5.30 to 6.00. The inhibition at 0.1 µM was found to be 78.3% on KDR kinase, 6.4% against c-KIT kinase and 18.9% against FLT-3 kinase. Also, the figures for the inhibition at 1 µM at KDR kinase, at c-KIT kinase and at FLT-3 kinase were 94.5%, 57.9% and 59.9%, respectively.
As to `O=c1[nH]c2cccccc-2c1-c1nc2cc(C(F)(F)F)ccc2[nH]1` [Compound B4], the pIC50 in test [1] was 5.30 to 6.00. In addition, the inhibition at 0.1 µM on KDR kinase came out at 14.4%; at c-KIT kinase it was 5%; at FLT-3 kinase it was 13.7%. Also, the figures for the inhibition at 1 µM at KDR kinase, at c-KIT kinase and at FLT-3 kinase were 17.8%, 37.6% and 37.1%, respectively.
With `O=c1[nH]c2cccccc-2c1-c1nc2cc([N+](=O)[O-])ccc2[nH]1` [Compound B5], the pIC50 in test [1] was 5.89. Also, the figures for the inhibition at 0.1 µM at KDR kinase, against c-KIT kinase and on FLT-3 kinase were 31.7%, 15.2% and 12.8%, respectively. The inhibition at 1 µM is 45.3% at KDR kinase, 56.8% against c-KIT kinase and 27.1% against FLT-3 kinase.
With `Nc1ccc2[nH]c(-c3c4cccccc-4[nH]c3=O)nc2c1` [Compound B6], the pIC50 in test [1] is 6.04. The inhibition at 0.1 µM on KDR kinase is 29.7%; on c-KIT kinase, 32.6%; at FLT-3 kinase, 12.8%. Also, the results for the inhibition at 1 µM on KDR kinase, against c-KIT kinase and against FLT-3 kinase were 63.3%, 62.6% and 45.1%, respectively.
For `O=C(O)c1ccc2[nH]c(-c3c4cccccc-4[nH]c3=O)nc2c1` [Compound B7], in test [1], the pIC50 is below 5.30. Also, the inhibition at 0.1 µM on KDR kinase is 20.2%; against c-KIT kinase it was 34.8%. The results for the inhibition at 1 µM at KDR kinase, at c-KIT kinase and against FLT-3 kinase were 46.1%, 57.3% and 8.7%, respectively.
Take `O=c1[nH]c2cccccc-2c1-c1nc2cc(O)ccc2[nH]1` [Compound B8]: the pIC50 in test [1] was around 6.30. In addition, the inhibition at 0.1 µM on KDR kinase stood at 15.9%; against c-KIT kinase, 42.2%; at FLT-3 kinase it was 9.8%. For the same compound, the results for the inhibition at 1 µM on KDR kinase, on c-KIT kinase and against FLT-3 kinase were 63.8%, 75.5% and 68.5%, respectively.
For the compound `O=c1[nH]c2cccccc-2c1-c1cn2ccccc2n1` [Compound B9], the negative logarithm of the IC50 (pIC50) in test [1] was 5.30 to 6.00. The inhibition at 0.1 µM amounted to 0.5% on KDR kinase, 16% on c-KIT kinase and 5.8% at FLT-3 kinase. Also, the values for the inhibition at 1 µM on KDR kinase, against c-KIT kinase and on FLT-3 kinase were 13.2%, 24.4% and 19.1%, respectively.

One may read the pIC50 as −log10 of the IC50, conventionally taken in molar units.
